Results: PubChem BioAssay AID1963974 (Molecular Pharmacology Branch, DTP, NCI, 2024)

Test system: 648629-189-R-J1-PDC spheroids with HUVEC/MSC, viability
Test: Anticancer human tumor 648629-189-R-J1-PDC patient-derived bladder carcinoma cell line growth inhibition [PI3K]
Conditions: for IC50: curve of first compound; for viability, T/C: stronger effect = lower value
Summary of the method: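 Combination activity was assessed by viability in multicellular tumor spheroids carrying HUVEC and MSC components. Agents were tested with PI3K inhibitors from a Cmax-based top dose (or 10 microM) downward in half-log increments.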

[1] = second compound 0.0316 µM, first compound 0.0316 µM
[2] = second compound 0.0316 µM, first compound 0.1 µM
[3] = second compound 0.0316 µM, first compound 0.316 µM
[4] = second compound 0.0316 µM, first compound 1 µM
[5] = second compound 0.0316 µM, first compound 3.16 µM
[6] = second compound 0.0316 µM, first compound 10 µM
[7] = second compound 0.1 µM, first compound 0.0316 µM
[8] = second compound 0.1 µM, first compound 0.1 µM
[9] = second compound 0.1 µM, first compound 0.316 µM
[10] = second compound 0.1 µM, first compound 1 µM
[11] = second compound 0.1 µM, first compound 3.16 µM
[12] = second compound 0.1 µM, first compound 10 µM
[13] = second compound 0.316 µM, first compound 0.0316 µM
[14] = second compound 0.316 µM, first compound 0.1 µM
[15] = second compound 0.316 µM, first compound 0.316 µM
[16] = second compound 0.316 µM, first compound 1 µM
[17] = second compound 0.316 µM, first compound 3.16 µM
[18] = second compound 0.316 µM, first compound 10 µM
[19] = second compound 1 µM, first compound 0.0316 µM
[20] = second compound 1 µM, first compound 0.1 µM
[21] = second compound 1 µM, first compound 0.316 µM
[22] = second compound 1 µM, first compound 1 µM
[23] = second compound 1 µM, first compound 3.16 µM
[24] = second compound 1 µM, first compound 10 µM
[25] = second compound 3.16 µM, first compound 0.0316 µM
[26] = second compound 3.16 µM, first compound 0.1 µM
[27] = second compound 3.16 µM, first compound 0.316 µM
[28] = second compound 3.16 µM, first compound 1 µM
[29] = second compound 3.16 µM, first compound 3.16 µM
[30] = second compound 3.16 µM, first compound 10 µM
[31] = second compound 10 µM, first compound 0.0316 µM
[32] = second compound 10 µM, first compound 0.1 µM
[33] = second compound 10 µM, first compound 0.316 µM
[34] = second compound 10 µM, first compound 1 µM
[35] = second compound 10 µM, first compound 3.16 µM
[36] = second compound 10 µM, first compound 10 µM
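Also: spheroids exposed to agents for seven days before reading.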
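For viability, T/C in this document: percent of vehicle control luminescence where 100% = DMSO treated spheroids.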

For `Cn1nccc1Nc1nccc(-c2ccn(C(CO)c3ccc(Cl)c(F)c3)c(=O)c2)n1` (centres undefined) + CC(Nc1ncnc2nc[nH]c12)c1cc2cccc(Cl)c2c(=O)n1-c1ccccc1, the IC50 (second compound 0.0316 µM) was over 10 µM, the IC50 (second compound 0.1 µM) was over 10 µM and the IC50 (second compound 0.316 µM) was over 10 µM. The IC50 (second compound 1 µM) was over 10 µM, the IC50 (second compound 3.16 µM) was over 10 µM and the IC50 (second compound 10 µM) was over 10 µM. The viability, T/C [1] was 104%, the viability, T/C [2] was 95.8% and the viability, T/C [3] was 101%. The viability, T/C [4] was 110%, the viability, T/C [5] was 94% and the viability, T/C [6] was 86.5%. The viability, T/C [7] was 101%, the viability, T/C [8] was 88.9% and the viability, T/C [9] was 102%. The viability, T/C [10] was 105%, the viability, T/C [11] was 100% and the viability, T/C [12] was 88.4%. It also gave a viability, T/C [13] of 116%, a viability, T/C [14] of 96.2% and a viability, T/C [15] of 96.8%. The viability, T/C [16] was 88.7%, the viability, T/C [17] was 101% and the viability, T/C [18] was 80.4%. It also gave a viability, T/C [19] of 104%, a viability, T/C [20] of 93.9% and a viability, T/C [21] of 101%. It also gave a viability, T/C [22] of 105%, a viability, T/C [23] of 102% and a viability, T/C [24] of 79.3%. It also gave a viability, T/C [25] of 88.5%, a viability, T/C [26] of 103% and a viability, T/C [27] of 100%. For the same compound, the viability, T/C [28] was 100%, the viability, T/C [29] was 93% and the viability, T/C [30] was 73.6%. The viability, T/C [31] was 86.5%, the viability, T/C [32] was 80.6% and the viability, T/C [33] was 79.9%. It also gave a viability, T/C [34] of 90.8%, a viability, T/C [35] of 97.7% and a viability, T/C [36] of 78.5%.

Work on `CC1(C)CCC(Nc2ncc(C(F)(F)F)c(-c3c[nH]c4c(P(C)(C)=O)c(C#N)ccc34)n2)CN1` (centres undefined) + CC(Nc1ncnc2nc[nH]c12)c1cc2cccc(Cl)c2c(=O)n1-c1ccccc1 yielded an IC50 (second compound 0.0316 µM) of under 0.0316 µM, an IC50 (second compound 0.1 µM) of under 0.0316 µM and an IC50 (second compound 0.316 µM) of under 0.0316 µM. The IC50 (second compound 1 µM) was under 0.0316 µM, the IC50 (second compound 3.16 µM) was under 0.0316 µM and the IC50 (second compound 10 µM) was under 0.0316 µM. The viability, T/C [1] was 35.1%, the viability, T/C [2] was 29% and the viability, T/C [3] was 35.4%. It also gave a viability, T/C [4] of 35.2%, a viability, T/C [5] of 43% and a viability, T/C [6] of 11.7%. It also gave a viability, T/C [7] of 36.7%, a viability, T/C [8] of 33.5% and a viability, T/C [9] of 28.3%. The viability, T/C [10] was 36%, the viability, T/C [11] was 39.6% and the viability, T/C [12] was 10.8%. The viability, T/C [13] was 32%, the viability, T/C [14] was 29.4% and the viability, T/C [15] was 29.1%. For the same compound, the viability, T/C [16] was 31.8%, the viability, T/C [17] was 39.1% and the viability, T/C [18] was 11.5%. It also gave a viability, T/C [19] of 30.6%, a viability, T/C [20] of 32.4% and a viability, T/C [21] of 29.8%. The viability, T/C [22] was 31.6%, the viability, T/C [23] was 42% and the viability, T/C [24] was 10.1%. The viability, T/C [25] was 34%, the viability, T/C [26] was 29.2% and the viability, T/C [27] was 28.9%. It also gave a viability, T/C [28] of 30.7%, a viability, T/C [29] of 36.2% and a viability, T/C [30] of 7.47%. For the same compound, the viability, T/C [31] was 39.7%, the viability, T/C [32] was 32% and the viability, T/C [33] was 33.3%. For the same compound, the viability, T/C [34] was 30.2%, the viability, T/C [35] was 34.7% and the viability, T/C [36] was 4.52%.
